Assay results published in patent US11440913B2, “Aminoimidazopyridazines as kinase inhibitors” (BRISTOL-MYERS SQUIBB COMPANY, priority 2017, dated 2022).
pIC50: −log10 of the molar value. Like-named read-outs stand apart in the source and are kept apart here.

Key:
[1] = test system: MLKL phosphorylation in HT29-L23 human colorectal adenocarcinoma cells; assay: MLKL Phosphorylation High-Content Assay; assay type: cell-based; settings: 6 h, necroptosis induced with TNFα, SMAC mimetic and Z-VAD, read-out: pMLKL (IC50)
Description: MLKL Phosphorylation High-Content Assay
HT29-L23 human colorectal adenocarcinoma cells were maintained in RPMI 1640 medium containing 10% heat-inactivated FBS, 1% Pennicilin-Streptomycin and 10 mM HEPES. Cells were seeded at 2,000 cells/well in 384 w tissue culture-treated microplates (Greiner #781090-3B) and incubated at 37° C. (5% CO2/95% O2) for two days. On the day of assay, the cells were treated with test compounds at final concentrations of 6.25 to 0.106 μM for 30 min at 37° C. (5% CO2/95% O2). Necroptopsis was induced using a mixture of human TNFα (35 ng/mL) (Peprotech #300-01A), SMAC mimetic (from US 2015/0322111 A1) (700 nM) and Z-VAD (140 nM) (BD pharmingen #51-6936). Following six hours incubation at 37° C. (5% CO2/95% O2), the cells were fixed with 4% formaldedye (ACROS 11969-0010) for 15 min at room temperature and then permeabilized with phoshpate buffered saline (PBS) containing 0.2% Triton-X-100 for 10 min. MLKL phosporylation was detected using anti-MLKL (phospho S358) antibody (Abcam # ab187091) (1:1000 dilution in Blocking Buffer [PBS supplemented with 0.1% BSA]) with overnight incubation at 4° C. After washing three times in PBS, goat anti-rabbit Alexa-488 (1:1000 dilution) (Life Technologies, A11008) and Hoechst 33342 (Life Technologies, H3570) (1:2000 dilution) in Blocking Buffer were added for 1 h at room temperature. Following another three cycles of washes in PBS, the microplates were sealed, and cellular images were acquired in the Cellomics ArrayScan VTI high-content imager equipped with an X1 camera. Fluorescent images were taken using a 10× objective and the 386-23 BGRFRN_BGRFRN and 485-20 BGRFRN_BGRFRN filter sets, for nuclei and MLKL phosphorylation, respectively. The image sets were analyzed using the Compartmental Analysis Bioapplication software (Cellomics). The level of MLKL phosphorylation was quantified as MEAN_CircRingAvgIntenRatio. […] The IC50 value was defined as the concentration of compound that produces 50% of the maximal inhibition. The data were fitted using the 4-parameter logistic equation to calculate the IC50 and Ymax values.

[2] = target: His-GST-TVMV-hRIPK1(1-324) (Homo sapiens (Human), UniProt Q13546); assay: RIPK1 HTRF Binding Assay; settings: HTRF binding, 1 h at rt; read-out: RIPK1 (IC50)
Description: A solution was prepared containing 0.2 nM Anti GST-Tb (Cisbio, 61GSTTLB), 90.6 nM probe and 1 nM His-GST-TVMV-hRIPK1(1-324) in FRET Buffer (20 mM HEPES, 10 mM MgCl2, 0.015% Brij-35, 4 mM DTT, 0.05 mg/mL BSA). Using Formulatrix Tempest, the detection antibody/enzyme/probe solution ([…]) was dispensed into wells of a 1536 plate (Black Low Binding Polystyrene 1536 Plate (Corning, 3724)) containing 10 nL of compounds of interest at appropriate concentration in DMSO. The plate was incubated at rt for 1 h. FRET was measured using the EnVision plate reader (Excitation: 340 nm, Emission: 520 nm/[…]). Total signal (0% inhibition) was calculated from wells containing 10 nL DMSO only.
The coding region of human RIPK1(1-324) flanked by NdeI site at 5′ end and stop codon TGA and XhoI site at 3′ end was codon optimized and gene synthesized at GenScript USA Inc. (Piscataway, N.J.) and subcloned into a modified pFastBacl vector (Invitrogen, Carlsbad, Calif.) with N-terminal His-GST-TVMV tag, to generate His-GST-TVMV-hRIPK1(1-324)-pFB. The fidelity of the synthetic fragment was confirmed by sequencing.

Chain of His-GST-TVMV-hRIPK1(1-324) (Q13546 1-324): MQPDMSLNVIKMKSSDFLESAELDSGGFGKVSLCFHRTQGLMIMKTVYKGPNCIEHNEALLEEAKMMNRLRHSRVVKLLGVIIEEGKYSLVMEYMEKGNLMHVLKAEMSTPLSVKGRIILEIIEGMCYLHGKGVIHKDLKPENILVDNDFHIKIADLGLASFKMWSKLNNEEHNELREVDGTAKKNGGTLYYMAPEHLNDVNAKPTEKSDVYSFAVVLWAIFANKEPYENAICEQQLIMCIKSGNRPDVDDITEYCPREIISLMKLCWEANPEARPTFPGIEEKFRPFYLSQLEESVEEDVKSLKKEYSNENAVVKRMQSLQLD

Row | Compound | pIC50 ([1]; Homo sapiens) | pIC50 [2] | pIC50 [1]
1 | CC(=O)Nc1cn2nc(-c3cnc(C)c(C(=O)NC(C)c4cc(OC(F)(F)F)ccc4F)c3)ccc2n1 (single isomer, unassigned) [Example 9-1, 5-(2-acetamidoimidazo[1,2-b]pyridazin-6-yl)-N-(1-(2-fluoro-5-(trifluoromethoxy)phenyl)ethyl)-2-methylnicotinamide] | 7.60 | 7.60 | –
2 | CC(=O)Nc1cn2nc(-c3cnc(C)c(C(=O)N[C@H](C)c4cc(OC(F)(F)F)ccc4F)c3)ccc2n1 (single isomer, unassigned) [Example 9-2] | 7.55 | 7.51 | –
3 | [2H]C([2H])([2H])Oc1nc(C)c(-c2ccc3nc(NC(C)=O)cn3n2)cc1C(=O)NC(C)c1ccccc1OC(F)(F)F (single isomer, unassigned) [Example 13-1, 5-{2-acetamidoimidazo[1,2-b]pyridazin-6-yl}-2-(D3)methoxy-6-methyl-N-{1-[2-(trifluoromethoxy)phenyl]ethyl}pyridine-3-carboxamide] | – | 6.01 | < 5.20
4 | [2H]C([2H])([2H])Oc1nc(C)c(-c2ccc3nc(NC(C)=O)cn3n2)cc1C(=O)NC(C)c1ccccc1OC(F)(F)F (single isomer, unassigned) [Example 13-2, 5-{2-acetamidoimidazo[1,2-b]pyridazin-6-yl}-2-(D3)methoxy-6-methyl-N-{1-[2-(trifluoromethoxy)phenyl]ethyl}pyridine-3-carboxamide] | – | 8.22 | 9.00
5 | CC(=O)Nc1cn2nc(-c3cnc(C)c(C(=O)N4CCCC(C(O)c5ccc(F)cc5)C4)c3)ccc2n1 (single isomer, unassigned) [Example 354, N-[6-(5-{3-[(4-fluorophenyl)(hydroxy)methyl]piperidine-1-carbonyl}-6-methylpyridin-3-yl)imidazo[1,2-b]pyridazin-2-yl]acetamide] | – | 6.67 | 6.65
6 | CC(=O)Nc1cn2nc(-c3cnc(C)c(C(=O)N4CCCC(C(O)c5ccc(F)cc5)C4)c3)ccc2n1 (single isomer, unassigned) [Example 355, N-[6-(5-{3-[(4-fluorophenyl)(hydroxy)methyl]piperidine-1-carbonyl}-6-methylpyridin-3-yl)imidazo[1,2-b]pyridazin-2-yl] acetamide] | – | 6.65 | 6.26
7 | CC(=O)Nc1cn2nc(-c3cnc(C)c(CNC(=O)c4cc(OC(F)(F)F)ccc4F)c3)ccc2n1 [Example 1, N-[(5-{2-acetamidoimidazo[1,2-b]pyridazin-6-yl}-2-methylpyridin-3-yl)methyl]-2-fluoro-5-(trifluoromethoxy)benzamide] | 6.62 | 7.00 | –
8 | [2H]C([2H])(NC(=O)c1cc(-c2ccc3nc(NC(=O)CO)cn3n2)cnc1OC)c1cc(F)cc(F)c1OC1CCOCC1 [Example 2, N-{[3,5-difluoro-2-(oxan-4-yloxy)phenyl](D2)methyl}-5-[2-(2-hydroxyacetamido)imidazo[1,2-b]pyridazin-6-yl]-2-methoxypyridine-3-carboxamide] | 8.40 | 8.70 | –
9 | COCC(=O)Nc1cn2nc(-c3cnc(OC)c(C(=O)NCc4ccccc4OC(F)(F)F)c3)ccc2n1 [Example 3, 2-methoxy-5-[2-(2-methoxyacetamido)imidazo[1,2-b]pyridazin-6-yl]-N-{[2-(trifluoromethoxy)phenyl]methyl}pyridine-3-carboxamide] | 6.53 | 7.52 | –
10 | CCC(=O)Nc1cn2nc(-c3cnc(OC)c(C(=O)NCc4cc(F)cc(F)c4OCC4CC4)c3)ccc2n1 [Example 4, N-{[2-(cyclopropylmethoxy)-3,5-difluorophenyl]methyl}-2-methoxy-5-{2-propanamidoimidazo[1,2-b]pyridazin-6-yl}pyridine-3-carboxamide] | 8.00 | 8.70 | –
11 | COc1ncc(-c2ccc3nc(NC(=O)C(C)C)cn3n2)cc1C(=O)NCc1cc(F)cc(F)c1OCC1CC1 [Example 5, N-{[2-(cyclopropylmethoxy)-3,5-difluorophenyl]methyl}-2-methoxy-5-[2-(2-methylpropanamido)imidazo[1,2-b]pyridazin-6-yl]pyridine-3-carboxamide] | 7.96 | 8.15 | –
